What was measured:
[1] = pharmacokinetic properties of different salts in Sprague-Dawley rats after oral administration; format: in vivo; conditions: male SD rats, single oral 10 mg·kg^−1 (as free base), 0.5% MC, fasted
Experimental: The oral dosing solution was prepared as follows: […] of a test compound was weighed and dispersed in 10 mL of 0.5% methyl cellulose (MC). The final concentration of the test compound is 1 mg·mL^−1 (Calculated by free freebase).
Male Sprague-Dawley rats (also summarized in Table 27) were housed in solid bottom polypropylene cages with sterilized bedding and receive sterilized diet and sterilized water. The room was controlled and monitored for humidity (targeted mean range 40% to 70%) and temperature (targeted mean range 18° C. to 26° C.) with 10 to 20 air changes/hour. The light cycle was maintained at 12-h light and 12-h dark. Only animals that appeared to be healthy were selected for this study based on overall health, body weight, or other relevant information.
The male Sprague-Dawley rats were fasted overnight with free access to drinking water prior to treatment. On day 1, the animals were weighed and actual dose volume for each animal was calculated using the formula below: […]
Three rats for each group were given a single oral dose of 10 mg·kg^−1. The dosing solutions were freshly prepared prior to dose administration. The actual body weights and actual volume injected were recorded accordingly. Four hours after dosing, the rats were allowed to intake food.
Blood samples (˜150 μL) were collected at different times from the jugular vein catheter into EDTA-K2 coated tubes. Whole blood was processed by centrifugation at 3000 g for 10 min. Plasma samples were collected and kept at −80° C. freezer prior to analysis. The blood sampling time was recorded accordingly.
The dose samples of PO were diluted with MeOH:H2O (4:1, v/v) to achieve the concentration of 2 μg·mL^−1, respectively. Then, 2.5 μL of the diluted samples were added with 47.5 μL blank plasma, and then were handled as the plasma sample procedure. An aliquot of 10 μL of the mixture was injected into the LC-MS/MS system.

[2] = DVS (water sorption) test of fumarate crystal forms; format: physicochemical; conditions: for water uptake in DVS: humidity increased
Experimental: DVS testing on fumarate Type A was performed starting from 25° C./70% RH.
DVS test on Type D was started at 25° C./60% RH to avoid any unnecessary form change for the starting form. […] Thus, fumarate Type D was speculated to be stable lower than 60% RH.
DVS testing on fumarate Type F was started at 25° C./80% RH to avoid any unnecessary form change for the starting form.

[3] = long-term stability, 3-month experiment; format: physicochemical
[4] = solid-state stability tests (HPLC and XRPD after storage for one week); format: physicochemical; conditions: for HPLC (area %), One week / XRPD form after storage (form change) / difference of HPLC purity after storage: 25° C./60% RH and 40° C./75% RH, one week
Experimental: Fumarate Type D and Type F were further evaluated by solid-state stability tests under 25° C./60% RH and 40° C./75% RH for one week.
In the experiments, about 15 mg of solids was added into an HPLC vial, which was then sealed with parafilm and pricked with 10 holes. Place the vial under corresponding condition and test the solids by HPLC and XRPD after one week.

[5] = biological target: PI3Kδ (Homo sapiens, UniProt O00329); assay: PI3Kδ inhibition in biochemical and cellular assays
[6] = tested on: tumor xenografts; assay: tumor xenografts engrafted subcutaneously or systemically in mice; format: in vivo; conditions: xenografts subcutaneous or systemic in mice
[7] = tested on: cancer cell lines; assay: cellular growth of cancer cell lines in vitro; format: cell-based; conditions: several cancer cell lines in vitro

PI3Kδ, sequence (O00329 whole entry, species assumed): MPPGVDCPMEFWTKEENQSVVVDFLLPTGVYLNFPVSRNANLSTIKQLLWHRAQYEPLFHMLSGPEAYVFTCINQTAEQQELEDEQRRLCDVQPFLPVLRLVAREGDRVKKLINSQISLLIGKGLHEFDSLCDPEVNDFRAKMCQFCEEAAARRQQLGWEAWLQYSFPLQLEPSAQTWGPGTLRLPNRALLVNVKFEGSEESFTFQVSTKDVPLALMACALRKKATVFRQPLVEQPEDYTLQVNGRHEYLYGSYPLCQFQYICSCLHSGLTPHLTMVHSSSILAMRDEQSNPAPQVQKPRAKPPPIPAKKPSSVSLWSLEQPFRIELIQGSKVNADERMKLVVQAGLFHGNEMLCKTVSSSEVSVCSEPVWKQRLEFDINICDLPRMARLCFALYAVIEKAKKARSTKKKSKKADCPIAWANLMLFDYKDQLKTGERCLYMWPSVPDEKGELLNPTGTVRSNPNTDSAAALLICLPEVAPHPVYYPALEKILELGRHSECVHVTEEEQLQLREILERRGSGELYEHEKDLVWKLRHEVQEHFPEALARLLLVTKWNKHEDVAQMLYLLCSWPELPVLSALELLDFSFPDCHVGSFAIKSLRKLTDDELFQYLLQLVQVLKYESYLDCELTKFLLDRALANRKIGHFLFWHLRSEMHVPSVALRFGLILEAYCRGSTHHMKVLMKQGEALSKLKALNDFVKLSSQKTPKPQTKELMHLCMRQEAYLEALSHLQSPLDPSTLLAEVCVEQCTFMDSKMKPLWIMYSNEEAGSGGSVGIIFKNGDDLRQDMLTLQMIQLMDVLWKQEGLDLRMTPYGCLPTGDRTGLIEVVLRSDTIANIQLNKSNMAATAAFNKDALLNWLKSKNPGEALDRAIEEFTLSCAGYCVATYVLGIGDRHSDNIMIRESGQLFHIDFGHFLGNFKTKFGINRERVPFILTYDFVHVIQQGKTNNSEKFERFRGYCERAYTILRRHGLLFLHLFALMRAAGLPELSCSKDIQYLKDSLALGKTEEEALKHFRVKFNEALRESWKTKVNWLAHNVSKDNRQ
PI3Kδ, sequence (P27986 whole entry partner, species assumed): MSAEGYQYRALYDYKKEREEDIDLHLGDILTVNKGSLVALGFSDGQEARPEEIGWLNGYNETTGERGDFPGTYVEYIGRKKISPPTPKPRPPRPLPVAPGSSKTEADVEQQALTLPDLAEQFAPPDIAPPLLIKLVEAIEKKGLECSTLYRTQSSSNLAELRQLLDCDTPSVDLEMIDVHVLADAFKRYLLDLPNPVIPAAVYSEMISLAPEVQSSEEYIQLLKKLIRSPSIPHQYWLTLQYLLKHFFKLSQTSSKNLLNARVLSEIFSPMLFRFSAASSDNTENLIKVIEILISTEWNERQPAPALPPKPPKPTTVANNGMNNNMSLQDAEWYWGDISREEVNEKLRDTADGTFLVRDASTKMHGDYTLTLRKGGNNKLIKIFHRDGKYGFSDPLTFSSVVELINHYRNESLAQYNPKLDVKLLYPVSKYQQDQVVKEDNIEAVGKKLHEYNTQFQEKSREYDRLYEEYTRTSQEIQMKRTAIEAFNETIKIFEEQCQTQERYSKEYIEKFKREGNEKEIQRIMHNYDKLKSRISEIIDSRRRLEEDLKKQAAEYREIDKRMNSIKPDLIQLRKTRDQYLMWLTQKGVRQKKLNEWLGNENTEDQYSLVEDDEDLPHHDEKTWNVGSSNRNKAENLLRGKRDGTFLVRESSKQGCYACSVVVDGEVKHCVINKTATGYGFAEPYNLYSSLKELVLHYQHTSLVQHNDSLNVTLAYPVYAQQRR

Structure (SMILES)	AUC0-inf [1] [ng·h/mL]	AUC0-t [1] [ng·h/mL]	Cmax [1] [ng/mL]	F % (n = 3) [1] [%]	Kel [1] [h⁻¹]	t1/2 [1] [h]	tmax [1] [h]	HPLC (area %), One week [4] [area %]	XRPD form after storage (form change) [4]	difference of HPLC purity after storage [4]	HPLC Area (%), RRT 1.00 ([4]; 25° C./60% RH for 1 week) [%]	HPLC Area (%), RRT 1.08 ([4]; 25° C./60% RH for 1 week) [%]	HPLC Area (%), RRT 1.13 ([4]; 25° C./60% RH for 1 week) [%]	HPLC Area (%), RRT 1.00 ([4]; 40° C./75% RH for 1 week) [%]	HPLC Area (%), RRT 1.08 ([4]; 40° C./75% RH for 1 week) [%]	HPLC Area (%), RRT 1.13 ([4]; 40° C./75% RH for 1 week) [%]	HPLC (area %), Initial ([4]; Initial) [area %]	HPLC Area (%), RRT 1.00 ([4]; Initial) [%]	HPLC Area (%), RRT 1.13 ([4]; Initial) [%]	also measured
Cc1nc([C@@H](C)c2cc(Cl)c(F)c(C(=O)NCCN3CCN(C)CC3)c2OC(C)C)n2ccnc(N)c12.Cc1nc([C@@H](C)c2cc(Cl)c(F)c(C(=O)NCCN3CCN(C)CC3)c2OC(C)C)n2ccnc(N)c12.O=C(O)C(O)C(O)C(=O)O.O=C(O)C(O)C(O)C(=O)O.O=C(O)C(O)C(O)C(=O)O [D-Tartarate (acid/base = 1.5:1)]	147.7	54.9	14.8	3.4	0.06	12	2.7													
Cc1nc([C@@H](C)c2cc(Cl)c(F)c(C(=O)NCCN3CCN(C)CC3)c2OC(C)C)n2ccnc(N)c12.O=C(O)/C=C/C(=O)O [Fumarate Type A]																				water uptake in DVS ([2]; started from 25° C./70% RH): ~21%
Cc1nc([C@@H](C)c2cc(Cl)c(F)c(C(=O)NCCN3CCN(C)CC3)c2OC(C)C)n2ccnc(N)c12.O=C(O)/C=C/C(=O)O [Fumarate Type D]	356	210	48.3	13.6	0.0687	11	2.45	99.9	Type D	no obvious difference of HPLC purity	99.92	0.02	0.06	99.90	0.03	0.07	99.9	99.92	0.05	long-term stability [3]: excellent long-term stability; XRPD form after storage (form change) ([4]; listed as fumarate Type D): no form change; HPLC Area (%), RRT 1.08 ([4]; Initial): 0.03%; humidity below which the form is speculated to be stable ([2]; from DVS, 25° C.): lower than 60 % RH; mass change in DVS ([2]; started at 25° C./60% RH, 60% to 0% RH, then 0% to 70% RH): ~1.6%
Cc1nc([C@@H](C)c2cc(Cl)c(F)c(C(=O)NCCN3CCN(C)CC3)c2OC(C)C)n2ccnc(N)c12.O=C(O)/C=C/C(=O)O [Fumarate Type F]								99.9	Type F	no obvious difference of HPLC purity	99.88	0.02	0.05	99.91	0.03	0.06	99.9	99.95	0.05	XRPD form after storage (form change) ([4]; listed as fumarate Type F): no form change; HPLC Area (%), RRT 1.06 ([4]; 25° C./60% RH for 1 week): 0.05%; water uptake in DVS ([2]; started at 25° C./80% RH): ~17%
Cc1nc([C@@H](C)c2cc(Cl)c(F)c(C(=O)NCCN3CCN(C)CC3)c2OC(C)C)n2ccnc(N)c12 [Compound A, (S)-3-(1-(8-amino-1-methylimidazo[1,5-a]pyrazin-3-yl)ethyl)-5-chloro-6-fluoro-2-isopropoxy-N-(2-(4-methylpiperazin-1-yl)ethyl)benzamide]																				inhibition of PI3Kδ [5]: potent and selective inhibitor; antitumor effects [6]: dose-dependent antitumor effects; inhibition of cellular growth [7]: inhibits cellular growth
